Source: patent US9102638B2, “Amidobenzothiazoles and process for the preparation thereof” (COUNCIL OF SCIENTIFIC & INDUSTRIAL RESEARCH, priority 2011, dated 2015)

What was measured:
Format in all cases: cell-based
[1] = test system: prostate cancer cell lines; experiment: In vitro activity against prostate cancer cell lines (panel range); conditions: Homo sapiens, read-out: GI50 values, range over the listed compounds and the panel
Method: (§1) The in vitro anticancer activity studies for these amidobenzothiazoles were carried out at the National Cancer Institute, Maryland, USA.
(§2) The amidobenzothiazoles have been tested against sixty human tumor cell lines derived from nine cancer types (leukemia cancer cell line, non-small cell lung cancer cell line, colon cancer cell line, CNS cancer cell line, melanoma cancer cell line, ovarian cancer cell line, renal cancer cell line, prostate cancer cell line and breast cancer cell lines). For these compounds results are expressed in GI50 values of that particular cancer cell at micro molar (μM) concentration as per NCI protocol.

MDA-MB-468 = experiment: In vitro cytotoxicity, NCI screen: MDA-MB-468 (Breast); conditions: Homo sapiens, read-out: GI50 values (μM conc.)
Method: as §1, §2

SF-295 = experiment: In vitro cytotoxicity, NCI screen: SF-295 (CNS); conditions: Homo sapiens; SF-295, CNS panel, NCI protocol; read-out: GI50 values (μM conc.)
Method: as §1, §2

PC-3 = experiment: In vitro cytotoxicity, NCI screen: PC-3 (Prostate); conditions: Homo sapiens; PC-3, Prostate panel, NCI protocol; read-out: GI50 values (μM conc.)
Method: as §1, §2

[2] = test system: leukemia cancer cell lines; experiment: In vitro activity against leukemia cancer cell lines (panel range); conditions: Homo sapiens, read-out: GI50 values, range over the listed compounds and the panel
Method: as §1, §2

HOP-92 = experiment: In vitro cytotoxicity, NCI screen: HOP-92 (Non-small cell lung); conditions: Homo sapiens; HOP-92, Non-small cell lung panel, NCI protocol; read-out: GI50 values (μM conc.)
Method: as §1, §2

SK-OV-3 = experiment: In vitro cytotoxicity, NCI screen: SK-OV-3 (Ovarian); conditions: Homo sapiens; SK-OV-3, Ovarian panel, NCI protocol; read-out: GI50 values (μM conc.)
Method: as §1, §2

OVCAR-3 = experiment: In vitro cytotoxicity, NCI screen: OVCAR-3 (Ovarian); conditions: Homo sapiens; OVCAR-3, Ovarian panel, NCI protocol; read-out: GI50 values (μM conc.)
Method: as §1, §2

NCI-H322M = experiment: In vitro cytotoxicity, NCI screen: NCI-H322M (Non-small cell lung); conditions: Homo sapiens, Non-small cell lung panel, NCI protocol, read-out: GI50 values (μM conc.)
Method: as §1, §2

TK-10 = experiment: In vitro cytotoxicity, NCI screen: TK-10 (Renal); conditions: Homo sapiens; TK-10, Renal panel, NCI protocol; read-out: GI50 values (μM conc.)
Method: as §1, §2

OVCAR-8 = experiment: In vitro cytotoxicity, NCI screen: OVCAR-8 (Ovarian); conditions: Homo sapiens; OVCAR-8, Ovarian panel, NCI protocol; read-out: GI50 values (μM conc.)
Method: as §1, §2

HOP-62 = experiment: In vitro cytotoxicity, NCI screen: HOP-62 (Non-small cell lung); conditions: Homo sapiens; HOP-62, Non-small cell lung panel, NCI protocol; read-out: GI50 values (μM conc.)
Method: as §1, §2

OVCAR-4 = experiment: In vitro cytotoxicity, NCI screen: OVCAR-4 (Ovarian); conditions: Homo sapiens; OVCAR-4, Ovarian panel, NCI protocol; read-out: GI50 values (μM conc.)
Method: as §1, §2

U251 = experiment: In vitro cytotoxicity, NCI screen: U251 (CNS); conditions: Homo sapiens, U-251; U251, CNS panel, NCI protocol; read-out: GI50 values (μM conc.)
Method: as §1, §2

ACHN = experiment: In vitro cytotoxicity, NCI screen: ACHN (Renal); conditions: Homo sapiens, Renal panel, NCI protocol, read-out: GI50 values (μM conc.)
Method: as §1, §2

UACC-257 = experiment: In vitro cytotoxicity, NCI screen: UACC-257 (Melanoma); conditions: Homo sapiens; UACC-257, Melanoma panel, NCI protocol; read-out: GI50 values (μM conc.)
Method: as §1, §2

A549/ATCC = experiment: In vitro cytotoxicity, NCI screen: A549/ATCC (Non-small cell lung); conditions: Homo sapiens, Non-small cell lung panel, NCI protocol, read-out: GI50 values (μM conc.)
Method: as §1, §2

MOLT-4 = experiment: In vitro cytotoxicity, NCI screen: MOLT-4 (Leukemia); conditions: Homo sapiens; MOLT-4, Leukemia panel, NCI protocol; read-out: GI50 values (μM conc.)
Method: as §1, §2

HCT-116 = experiment: In vitro cytotoxicity, NCI screen: HCT-116 (Colon); conditions: Homo sapiens, read-out: GI50 values (μM conc.)
Method: as §1, §2

786-0 = experiment: In vitro cytotoxicity, NCI screen: 786-0 (Renal); conditions: Homo sapiens; 786-0, Renal panel, NCI protocol; read-out: GI50 values (μM conc.)
Method: as §1, §2

RPMI-8226 = experiment: In vitro cytotoxicity, NCI screen: RPMI-8226 (Leukemia); conditions: Homo sapiens; RPMI-8226, Leukemia panel, NCI protocol; read-out: GI50 values (μM conc.)
Method: as §1, §2

EKVX = experiment: In vitro cytotoxicity, NCI screen: EKVX (Non-small cell lung); conditions: Homo sapiens, Non-small cell lung panel, NCI protocol, read-out: GI50 values (μM conc.)
Method: as §1, §2

MCF7 = experiment: In vitro cytotoxicity, NCI screen: MCF7 (Breast); conditions: Homo sapiens; MCF7, Breast panel, NCI protocol; read-out: GI50 values (μM conc.)
Method: as §1, §2

HS 578T = experiment: In vitro cytotoxicity, NCI screen: HS 578T (Breast); conditions: Homo sapiens, read-out: GI50 values (μM conc.)
Method: as §1, §2

CNS cancer cell lines = experiment: In vitro activity against CNS cancer cell lines (panel range); conditions: Homo sapiens, read-out: GI50 values, range over the listed compounds and the panel
Method: as §1, §2

SNB-75 = experiment: In vitro cytotoxicity, NCI screen: SNB-75 (CNS); conditions: Homo sapiens; SNB-75, CNS panel, NCI protocol; read-out: GI50 values (μM conc.)
Method: as §1, §2

CAKI-1 = experiment: In vitro cytotoxicity, NCI screen: CAKI-1 (Renal); conditions: Homo sapiens; CAKI-1, Renal panel, NCI protocol; read-out: GI50 values (μM conc.)
Method: as §1, §2

NCI-H522 = experiment: In vitro cytotoxicity, NCI screen: NCI-H522 (Non-small cell lung); conditions: Homo sapiens; NCI-H522, Non-small cell lung panel, NCI protocol; read-out: GI50 values (μM conc.)
Method: as §1, §2

BT-549 = experiment: In vitro cytotoxicity, NCI screen: BT-549 (Breast); conditions: Homo sapiens, read-out: GI50 values (μM conc.)
Method: as §1, §2

SW-620 = experiment: In vitro cytotoxicity, NCI screen: SW-620 (Colon); conditions: Homo sapiens; SW-620, Colon panel, NCI protocol; read-out: GI50 values (μM conc.)
Method: as §1, §2

Row | Structure (SMILES) | GI50 [1] [µM] | GI50 (MDA-MB-468) [µM] | GI50 (SF-295) [µM] | GI50 (PC-3) [µM] | GI50 [2] [µM] | GI50 (HOP-92) [µM] | GI50 (SK-OV-3) [µM] | GI50 (OVCAR-3) [µM] | GI50 (NCI-H322M) [µM] | GI50 (TK-10) [µM] | GI50 (OVCAR-8) [µM] | GI50 (HOP-62) [µM] | GI50 (OVCAR-4) [µM] | GI50 (U251) [µM] | GI50 (ACHN) [µM] | GI50 (UACC-257) [µM] | GI50 (A549/ATCC) [µM] | GI50 (MOLT-4) [µM] | GI50 (HCT-116) [µM] | GI50 (786-0) [µM] | further results
1 | COc1ccc(/C=C\c2cc(OC)c(OC)c(OC)c2)cc1OCC(=O)Nc1nc2ccc(OC(F)(F)F)cc2s1 [Compound 8j, N1-(6-(trifluoromethoxy)-1,3-benzothiazol-2-yl)-2-{2-methoxy-5-[(Z)-2-(3,4,5-trimethoxyphenyl)-1-ethenyl]phenoxy}acetamide] | 0.18 to 22.9 | 2.3 | 3.7 | 5.12 | 0.037 to 29.9 | 2.74 | 8.42 | 3.37 | > 100 | 18.6 | 5 | 7.09 | 5.34 | 3.37 | 8.31 | 89.2 | 6 | 4.21 | 3.92 | 54.3 | GI50 (RPMI-8226): 5.83 µM; GI50 (EKVX): 7.89 µM; GI50 (MCF7): 2.89 µM; GI50 (HS 578T): 4.33 µM; GI50 (CNS cancer cell lines): 0.045 to 18.8 µM; GI50 (SNB-75): 1.56 µM; GI50 (CAKI-1): 4.6 µM; GI50 (NCI-H522): 3.16 µM; GI50 (BT-549): 10.5 µM; GI50 (SW-620): 5.65 µM
2 | COc1ccc(/C=C/C(=O)c2cc(OC)c(OC)c(OC)c2)cc1OCC(=O)Nc1nc2ccc(OC(F)(F)F)cc2s1 [Compound 9j, N1-(6-(trifluoromethoxy)-1,3-benzothiazol-2-yl)-2-{2-methoxy-5-[(E)-3-oxo-3-(3,4,5-trimethoxyphenyl)-1-propenyl]phenoxy}acetamide] | 0.18 to 22.9 | 3.52 | 2.21 | 3.14 | 0.037 to 29.9 | 2.14 | 2.16 | 1.52 | 2.77 | 2.08 | 1.54 | 2.12 | 2.07 | 0.7 | 1.62 | 8.08 | 1.99 | 2.89 | 1.43 | 2.26 | GI50 (RPMI-8226): 2.02 µM; GI50 (EKVX): 5.11 µM; GI50 (MCF7): 1.32 µM; GI50 (HS 578T): 3.08 µM; GI50 (CNS cancer cell lines): 0.045 to 18.8 µM; GI50 (SNB-75): 0.34 µM; GI50 (CAKI-1): 2.2 µM; GI50 (NCI-H522): 0.67 µM; GI50 (BT-549): 2.71 µM; GI50 (SW-620): 1.08 µM
